According to patent publication EP4610269A1, “UROKINASE PLASMINOGEN ACTIVATOR SURFACE RECEPTOR (UPAR) LIGANDS FOR DIAGNOSTIC OR THERAPEUTIC USE” (3B Pharmaceuticals GmbH, priority 2024, dated 2025):
*1 amine or outer side, *2 acyl side, *3 side chain or, on linkers, in order; H or OH if unused. Where a SMILES comes first, the peptide text is derived from it. Bridges are numbered along the chain shown (N, C = ends). [ ]: non-standard residue; d: D form. The star is where a group is joined. Pro(trans-4-NH2) = O=C([C@@H]1C[C@@H](N[*:3])CN1[*:1])[*:2]; DOTA = O=C(O)CN1CCN(CC(=O)O)CCN(CC(=O)*)CCN(CC(=O)O)CC1; Hyp = O=C(O)[C@@H]1C[C@@H](O)CN1; 3Pal = N[C@@H](Cc1cccnc1)C(=O)O; Pentanoyl(4-Me) = CC(C)CCC(=O)*; Cit = NC(=O)NCCC[C@H](N)C(=O)O; Suc = O=C(CCC(=O)[*:2])[*:1]; Nva = CCC[C@H](N)C(=O)O; Pentanoyl = CCCCC(=O)*; AEEA = NCCOCCOCC(=O)O

How the values were obtained:
[1] = Plasma stability assay (mouse plasma); format: in vitro ADME; conditions: mouse plasma (sodium citrate 3.7%), 37°C, LC-MS quantification, read-out: % intact compound remaining after 6h incubation Mouse plasma
Experimental: In order to determine the stability of selected compounds of the invention in human and mouse plasma, a plasma stability assay was carried out. Such plasma stability assay measures degradation of compounds of the present invention in blood plasma. This is an important characteristic of a compound as compounds, with the exception of pro-drugs, which rapidly degrade in plasma, generally show poor in vivo efficacy. […] The stability is sufficient for the diagnostic, therapeutic and theragnostic use of these compounds according to the present invention.
The plasma stability samples were prepared by spiking 50 µl plasma aliquots (all sodium citrate 3.7%) with 1 µl of a 0.5 mM compound stock solution in DMSO. After vortexing the samples were incubated in a Thermomixer at 37°C for 0 and 6 hours. After incubation the samples were stored on ice until further treatment. All samples were prepared in duplicates.
A suitable internal standard was added to each sample (1 µl of a 0.5 mM stock solution in DMSO). Protein precipitation was performed using two different methods depending on the compound conditions as indicated in Table 13. • A) 250 µl of acetonitrile containing 1% trifluoroacetic acid was added. After incubation at room temperature for 30 min the precipitate was separated by centrifugation and 150 µl of the supernatant was diluted with 150 µl of 1% aqueous formic acid. • B) 150 µl of a zinc sulphate precipitation agent containing 78% 0.1 M zinc sulphate and 22% acetonitrile was added. After incubation at room temperature for 30 min the precipitate was separated by centrifugation. To 100 µl of the supernatant 10 µl of 1% formic acid was added followed by further incubation at 60°C for 10 min to complete the formation of the zinc chelate, if the compound contains a free DOTA moiety.
The determination of the analyte in the clean sample solutions was performed on an Agilent 1290 UHPLC system coupled to an Agilent 6530 Q-TOF mass spectrometer. The chromatographic separation was carried out on a Phenomenex BioZen XB-C18 HPLC column (50 x 2 mm, 1.7 µm particle size).
Two different elution gradients were applied using a mixture of 0.1% formic acid in water as eluent A and acetonitrile as eluent B: • A) 2% B to 41% in 7 min, 800 µl/min, 40°C. • B) 5% B to 50% B in 6 min, 800 µL/min, 40°C.
Mass spectrometric detection was performed in positive ion ESI mode by scanning the mass range from m/z 50 to 3000 with a sampling rate of 2 / sec.
(§1) From the mass spectrometric raw data the ion currents for the double or triple charged monoisotopic signal was extracted for both, the compound and the internal standard.
(§2) Quantitation was performed by external matrix calibration with internal standard using the integrated analyte signals.
Additionally, recovery was determined by spiking a pure plasma sample that only contained the internal standard after treatment with a certain amount of the compound.
Carry-over was evaluated by analysis of a blank sample (20% acetonitrile) after the highest calibration sample.
(§3) The result is stated as "% intact compound remaining after 6 h incubation" and means that from the amount of material at the start of the experiment the stated percentage is detected as unchanged material at the end of the experiment by LC-MS quantification. Since all compounds are more than 50% intact after 6 h they are considered as stable enough for diagnostic and therapeutic applications. Table 13: Results of the plasma stability assay

[2] = target: T1, Recombinant soluble human NEP (Homo sapiens, UniProt P08473); assay: Proteolytic stability assay against NEP; format: in vitro ADME; conditions: recombinant soluble human NEP, human NEP 100 ng/mL, compound 10 µM, 37°C, LC-MS quantification, read-out: % intact compound remaining after 24h incubation
T1 construct: Recombinant soluble human NEP; purchased BioTechne, Wiesbaden, Germany
T1 sequence (P08473 52-750 limits assumed): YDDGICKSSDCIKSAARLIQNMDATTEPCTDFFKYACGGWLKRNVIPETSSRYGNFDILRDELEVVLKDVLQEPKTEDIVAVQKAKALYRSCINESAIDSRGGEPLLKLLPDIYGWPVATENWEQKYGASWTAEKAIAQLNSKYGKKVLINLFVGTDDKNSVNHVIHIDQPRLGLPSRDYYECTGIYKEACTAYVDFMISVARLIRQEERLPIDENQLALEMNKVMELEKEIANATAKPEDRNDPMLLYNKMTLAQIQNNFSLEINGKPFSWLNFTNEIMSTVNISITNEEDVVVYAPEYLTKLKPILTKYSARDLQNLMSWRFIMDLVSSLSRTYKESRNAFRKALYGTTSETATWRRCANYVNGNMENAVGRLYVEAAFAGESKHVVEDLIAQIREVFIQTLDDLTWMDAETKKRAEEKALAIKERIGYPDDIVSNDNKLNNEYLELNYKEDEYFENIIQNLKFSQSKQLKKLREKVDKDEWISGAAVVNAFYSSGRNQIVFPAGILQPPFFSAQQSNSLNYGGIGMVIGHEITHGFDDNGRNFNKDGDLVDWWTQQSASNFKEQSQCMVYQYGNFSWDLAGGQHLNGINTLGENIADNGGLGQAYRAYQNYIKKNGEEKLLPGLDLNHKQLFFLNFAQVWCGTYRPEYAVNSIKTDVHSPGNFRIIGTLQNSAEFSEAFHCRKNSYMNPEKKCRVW
Experimental: To assess the stability of compounds against NEP, the compounds were subjected to an in vitro assay based on the protocol described by Edelson et al. (Edelson, Makhlina et al. 2013).
Recombinant soluble human NEP (BioTechne, Wiesbaden, Germany) at a concentration of 100 ng/mL was mixed with the compound (10 µM) and a stable internal standard (10 µM) and incubated at 37°C. After several time points, samples were taken and analyzed with LC-MS.
The determination of the analyte in the clean sample solutions was performed on an Agilent 1290 UHPLC system coupled to an Agilent 6530 Q-TOF mass spectrometer. The chromatographic separation was carried out on a Phenomenex BioZen XB-C18 HPLC column (50 × 2 mm, 1.7 µm particle size) with gradient elution using a mixture of 0.1% formic acid in water as eluent A and acetonitrile as eluent B (2% B to 41% in 7 min, 800 µl/min, 40°C). Mass spectrometric detection was performed in positive ion ESI mode by scanning the mass range from m/z 50 to 3000 with a sampling rate of 2 / sec.
as §1, §2
The activity of NEP was examined using a commercially available chromogenic substrate of NEP.
as §3, with “24” for “6”, “14:” for “13:”, “NEP” for “plasma”

Row | Compound | remaining at 6 h, 9.8 µM [1] [%] | remaining at 24 h, 10 µM [2] [%]
1 | CC[C@H](C)[C@@H]1NC(=O)[C@@H]2C[C@@H](NC(=O)CN3CCN(CC(=O)O)CCN(CC(=O)O)CCN(CC(=O)O)CC3)CN2C(=O)[C@@H]2CCCN2C(=O)[C@H](Cc2ccccc2)NC(=O)[C@H](Cc2ccc(O)cc2)NC(=O)[C@H](CCC(N)=O)NC(=O)[C@H](CCCNC(N)=O)NC(=O)[C@@H](NC(=O)CCC(C)C)CSSC[C@@H](C(N)=O)NC(=O)[C@H](CC(C)C)NC1=O [UPAR-389, iHex-[Cys-Cit-Gln-Tyr-Phe-Pro-Tap(DOTA)-Ile-Leu-Cys]-NH2] ({Pentanoyl(4-Me)}-C[Cit]QYFP[Pro(trans-4-NH2)](DOTA)ILC-NH2; disulfide 1-10) | 95 | > 95
2 | CC[C@H](C)[C@@H]1NC(=O)[C@@H](C)NC(=O)[C@@H]2CCCN2C(=O)[C@H](Cc2ccccc2)NC(=O)[C@H](Cc2ccc(O)cc2)NC(=O)[C@H](CCC(N)=O)NC(=O)[C@H](CCCNC(N)=O)NC(=O)[C@@H](NC(=O)[C@H](CC(C)C)NC(=O)COCCOCCNC(=O)CN2CCN(CC(=O)O)CCN(CC(=O)O)CCN(CC(=O)O)CC2)CSSC[C@@H](C(N)=O)NC(=O)[C@H](CC(C)C)NC1=O [UPAR-245, DOTA-O2Oc-Leu-[Cys-Cit-Gln-Tyr-Phe-Pro-ala-Ile-Leu-Cys]-NH2] ({DOTA-AEEA}-LC[Cit]QYFP[dA]ILC-NH2; disulfide 2-11) | 74 | 72
3 | CC[C@H](C)[C@@H]1NC(=O)[C@@H](C)NC(=O)[C@@H]2CCCN2C(=O)[C@H](Cc2ccccc2)NC(=O)[C@H](Cc2ccc(O)cc2)NC(=O)[C@H](CCCCNC(=O)CN2CCN(CC(=O)O)CCN(CC(=O)O)CCN(CC(=O)O)CC2)NC(=O)[C@H](CCCNC(N)=O)NC(=O)[C@@H](NC(=O)[C@H](CC(C)C)NC(=O)[C@H](CC(=O)O)NC(C)=O)CSSC[C@@H](C(N)=O)NC(=O)[C@H](CC(C)C)NC1=O [UPAR-189, Ac-Asp-Leu-[Cys-Cit-Lys(DOTA)-Tyr-Phe-Pro-ala-Ile-Leu-Cys]-NH2] (Ac-DLC[Cit]K(DOTA)YFP[dA]ILC-NH2; disulfide 3-12) | > 95 | 94
4 | CCCCC(=O)N[C@H]1CSSC[C@@H](C(N)=O)NC(=O)[C@H](CCC)NC(=O)[C@H]([C@@H](C)CC)NC(=O)[C@@H]2C[C@@H](O)CN2C(=O)[C@@H]2C[C@@H](O)CN2C(=O)[C@H](Cc2ccccc2)NC(=O)[C@H](Cc2ccc(O)cc2)NC(=O)[C@H](CCCCNC(=O)CN2CCN(CC(=O)O)CCN(CC(=O)O)CCN(CC(=O)O)CC2)NC(=O)[C@H](CCCNC(N)=O)NC1=O [UPAR-403, Pent-[Cys-Cit-Lys(DOTA)-Tyr-Phe-Hyp-Hyp-Ile-Nva-Cys]-NH2] (Pentanoyl-C[Cit]K(DOTA)YF[Hyp][Hyp]I[Nva]C-NH2; disulfide 1-10) | 87 | 95
5 | CC[C@H](C)[C@@H]1NC(=O)[C@@H]2CCCN2C(=O)[C@@H]2CCCN2C(=O)[C@H](Cc2ccccc2)NC(=O)[C@H](Cc2ccc(O)cc2)NC(=O)[C@H](CCC(N)=O)NC(=O)[C@H](CCCNC(N)=O)NC(=O)[C@@H](NC(=O)[C@H](CC(C)C)NC(=O)COCCOCCNC(=O)CN2CCN(CC(=O)O)CCN(CC(=O)O)CCN(CC(=O)O)CC2)CSSC[C@@H](C(N)=O)NC(=O)[C@H](CC(C)C)NC1=O [UPAR-229, DOTA-O2Oc-Leu-[Cys-Cit-Gln-Tyr-Phe-Pro-Pro-Ile-Leu-Cys]-NHz] ({DOTA-AEEA}-LC[Cit]QYFPPILC-NH2; disulfide 2-11) | 90 | 84
6 | CC[C@H](C)[C@@H]1NC(=O)[C@@H](CCCNC(=N)N)NC(=O)[C@@H]2CCCN2C(=O)[C@H](Cc2ccccc2)NC(=O)[C@H](Cc2ccc(O)cc2)NC(=O)[C@H](CCCCNC(=O)CN2CCN(CC(=O)O)CCN(CC(=O)O)CCN(CC(=O)O)CC2)NC(=O)[C@H](CCCNC(N)=O)NC(=O)[C@@H](NC(=O)[C@H](CC(C)C)NC(=O)[C@H](CC(=O)O)NC(C)=O)CSSC[C@@H](C(N)=O)NC(=O)[C@H](CC(C)C)NC1=O [UPAR-306, Ac-Asp-Leu-[Cys-Cit-Lys(DOTA)-Tyr-Phe-Pro-arg-Ile-Leu-Cys]-NH2] (Ac-DLC[Cit]K(DOTA)YFP[dR]ILC-NH2; disulfide 3-12) | 95 | 88
7 | CC[C@H](C)[C@@H]1NC(=O)[C@@H](C)NC(=O)[C@@H]2CCCN2C(=O)[C@H](Cc2ccccc2)NC(=O)[C@H](Cc2ccc(O)cc2)NC(=O)[C@H](CCC(N)=O)NC(=O)[C@H](CCCNC(N)=O)NC(=O)[C@@H](NC(=O)CCC(C)C)CSSC[C@@H](C(N)=O)NC(=O)[C@H](CC(C)C)NC1=O [UPAR-338, iHex-[Cys-Cit-Gln-Tyr-Phe-Pro-ala-Ile-Leu-Cys]-NH2] ({Pentanoyl(4-Me)}-C[Cit]QYFP[dA]ILC-NH2; disulfide 1-10) | 73 | 70
8 | CC[C@H](C)[C@@H]1NC(=O)[C@@H](C)NC(=O)[C@@H]2CCCN2C(=O)[C@H](Cc2ccccc2)NC(=O)[C@H](Cc2ccc(O)cc2)NC(=O)[C@H](CC(=O)O)NC(=O)[C@H](CCCNC(N)=O)NC(=O)[C@@H](NC(=O)CCC(C)C)CSSC[C@@H](C(N)=O)NC(=O)[C@H](CC(C)C)NC1=O [UPAR-434, iHex-[Cys-Cit-Asp-Tyr-Phe-Pro-ala-Ile-Leu-Cys]-NH2] ({Pentanoyl(4-Me)}-C[Cit]DYFP[dA]ILC-NH2; disulfide 1-10) | 90 | > 95
9 | CCC[C@H](NC(=O)CCC(=O)O)C(=O)N[C@H]1CSSC[C@@H](C(N)=O)NC(=O)[C@H](CCC)NC(=O)[C@H]([C@@H](C)CC)NC(=O)[C@@H]2C[C@@H](O)CN2C(=O)[C@@H]2CCCN2C(=O)[C@H](Cc2ccccc2)NC(=O)[C@H](Cc2ccc(O)cc2)NC(=O)[C@H](CCCCNC(=O)CN2CCN(CC(=O)O)CCN(CC(=O)O)CCN(CC(=O)O)CC2)NC(=O)[C@H](CCCNC(N)=O)NC1=O [UPAR-293, HO-Succinyl-Nva-[Cys-Cit-Lys(DOTA)-Tyr-Phe-Pro-Hyp-Ile-Nva-Cys]-NH2] (Suc-[Nva]C[Cit]K(DOTA)YFP[Hyp]I[Nva]C-NH2; disulfide 2-11) | > 95 | > 95
10 | CCCCC(=O)N[C@H]1CSSC[C@@H](C(N)=O)NC(=O)[C@H](CCC)NC(=O)[C@H]([C@@H](C)CC)NC(=O)[C@@H]2C[C@@H](O)CN2C(=O)[C@@H]2CCCN2C(=O)[C@H](Cc2ccccc2)NC(=O)[C@H](Cc2cccnc2)NC(=O)[C@H](CCCCNC(=O)CN2CCN(CC(=O)O)CCN(CC(=O)O)CCN(CC(=O)O)CC2)NC(=O)[C@H](CCCNC(N)=O)NC1=O [UPAR-138, Pent-[Cys-Cit-Lys(DOTA)-Mpa-Phe-Pro-Hyp-Ile-Nva-Cys]-NH2] (Pentanoyl-C[Cit]K(DOTA)[3Pal]FP[Hyp]I[Nva]C-NH2; disulfide 1-10) | 91 | 94
